Experiments:
saffron ovary = experiment: Tissue culture of saffron ovary in MS medium with alanine; visual rating of stigma-like tissue (Example 3); type: cell-based; details: alanine 20.0 g/l, BA 10 ppm, NAA 1.0 ppm, 7 weeks, scale 0-10
Excerpt: (§1) The relative amount of the stigma-like tissue was visually determined and rated according to an 11-part divided scale, taking an amount corresponding to the amount of naturally-occurring three stigmata containing saffron pigment as 10, nil as 0, and equally dividing the interval therebetween.
(§2) The relative color density of the stigma-like tissue was visually determined, and rated according to an 11-part divided scale, taking a density corresponding to the density of a naturally-occurring stigma containing saffron pigment as 10 and colorlessness as 0, and equally dividing the interval therebetween.
(§3) Guaran powder was then added to the medium in a concentration of 0.2% by weight. The medium was sterilized at 120° C. for 20 minutes in an autoclave. The sterilized medium was aloquated into sterile plastic plates having a diameter of 55 mm, followed by cooling to solidify.
(§4) A bud of a saffron flower before opening was harvested, sterilized by soaking in a 0.5 vol% sodium hypochlorite aqueous solution for 10 minutes, and washed with water. The ovary portion of the bud was taken out and cut to pieces of about 8 mm. Each cut piece was seeded on each of the above-prepared solid media.
The ovary was subjected to static culture at 25° C. in a dark room. Production of a stigma-like tissue was recognized in the cultures in about 4 weeks at the soonest. In 7 weeks, the stigma-like tissue grew and assumed a red color, indicating considerable production of the saffron pigment.
(§5) After 7 weeks of culturing, the tissue cultures were visually observed and evaluated in the same manner as in Example 1.

style of saffron = experiment: Tissue culture of saffron style with alanine; visual rating of stigma-like tissue (Example 6); type: cell-based; details: Ki 2 ppm, Linsmaier-Skoog medium, scale 0-10
Excerpt: as §1, §2, §3, §4, §5
(§6) A saffron ovary was cultured in the same manner as in Example 3, except for replacing the MS medium with a Linsmaier-Skoog medium to which Ki, NAA and alanine were added in the concentrations shown in Table 11.
The procedure of Example 4 was repeated except for replacing the overy with a style of saffron.

[1] = test system: corolla tube of a saffron; experiment: Tissue culture of saffron corolla tube with alanine; visual rating of stigma-like tissue (Example 5); type: cell-based; details: Ki 2 ppm, Linsmaier-Skoog medium, scale 0-10
Excerpt: as §1, §2, §3, §4, §5, §6
The procedure of Example 4 was repeated except for replacing the ovary with a corolla tube of a saffron.

stigma of saffran = experiment: Tissue culture of saffron stigma with alanine; visual rating of stigma-like tissue (Example 7); type: cell-based; details: Ki 2 ppm, Linsmaier-Skoog medium, scale 0-10
Excerpt: as §1, §2, §3, §4, §5, §6
The procedure of Example 4 was repeated except for replacing the ovary with a stigma of saffran.

[2] = test system: undifferentiated callus of saffron bulb; details: undifferentiated callus culture of saffron bulb; symposium 1987; cited from earlier work

C[C@H](N)C(=O)O (racemic) [Alanine, alanine]
Relative Color Density of Stigma-Like Tissue Containing Saffron Pigment (saffron ovary): 7 | Relative Production of Stigma-Like Tissue Containing Saffron Pigment (saffron ovary): 4 | Relative Density of Stigma-Like Tissue Containing Saffron Pigment (style of saffron; alanine 0.1 g/l, NAA 0.1 ppm): 6 | Relative Production of Stigma-Like Tissue Containing Saffron Pigment (style of saffron; alanine 0.1 g/l, NAA 0.1 ppm): 4 | Relative Density of Stigma-Like Tissue Containing Saffron Pigment (style of saffron; alanine 0.1 g/l, NAA 1.0 ppm): 7 | Relative Production of Stigma-Like Tissue Containing Saffron Pigment (style of saffron; alanine 0.1 g/l, NAA 1.0 ppm): 5 | Relative Density of Stigma-Like Tissue Containing Saffron Pigment (style of saffron; alanine 1.0 g/l, NAA 0.1 ppm): 7 | Relative Production of Stigma-Like Tissue Containing Saffron Pigment (style of saffron; alanine 1.0 g/l, NAA 0.1 ppm): 5 | Relative Density of Stigma-Like Tissue Containing Saffron Pigment (style of saffron; alanine 1.0 g/l, NAA 1.0 ppm): 7 | Relative Production of Stigma-Like Tissue Containing Saffron Pigment (style of saffron; alanine 1.0 g/l, NAA 1.0 ppm): 6 | Relative Density of Stigma-Like Tissue Containing Saffron Pigment (style of saffron; alanine 5.0 g/l, NAA 0.1 ppm): 7 | Relative Production of Stigma-Like Tissue Containing Saffron Pigment (style of saffron; alanine 5.0 g/l, NAA 0.1 ppm): 5 | Relative Density of Stigma-Like Tissue Containing Saffron Pigment (style of saffron; alanine 5.0 g/l, NAA 1.0 ppm): 8 | Relative Production of Stigma-Like Tissue Containing Saffron Pigment (style of saffron; alanine 5.0 g/l, NAA 1.0 ppm): 6 | Relative Color Density of Stigma-Like Tissue Containing Saffron Pigment ([1]; alanine 0.01 g/l, NAA 0.1 ppm): 6 | Relative Production of Stigma-Like Tissue Containing Saffron Pigment ([1]; alanine 0.01 g/l, NAA 0.1 ppm): 4 | Relative Color Density of Stigma-Like Tissue Containing Saffron Pigment ([1]; alanine 0.01 g/l, NAA 1.0 ppm): 6 | Relative Production of Stigma-Like Tissue Containing Saffron Pigment ([1]; alanine 0.01 g/l, NAA 1.0 ppm): 4 | Relative Color Density of Stigma-Like Tissue Containing Saffron Pigment ([1]; alanine 0.1 g/l, NAA 0.1 ppm): 7 | Relative Production of Stigma-Like Tissue Containing Saffron Pigment ([1]; alanine 0.1 g/l, NAA 0.1 ppm): 5 | Relative Color Density of Stigma-Like Tissue Containing Saffron Pigment ([1]; alanine 0.1 g/l, NAA 1.0 ppm): 7 | Relative Production of Stigma-Like Tissue Containing Saffron Pigment ([1]; alanine 0.1 g/l, NAA 1.0 ppm): 5 | Relative Color Density of Stigma-Like Tissue Containing Saffron Pigment ([1]; alanine 1.0 g/l, NAA 0.1 ppm): 7 | Relative Production of Stigma-Like Tissue Containing Saffron Pigment ([1]; alanine 1.0 g/l, NAA 0.1 ppm): 6 | Relative Color Density of Stigma-Like Tissue Containing Saffron Pigment ([1]; alanine 1.0 g/l, NAA 1.0 ppm): 7 | Relative Production of Stigma-Like Tissue Containing Saffron Pigment ([1]; alanine 1.0 g/l, NAA 1.0 ppm): 6 | Relative Color Density of Stigma-Like Tissue Containing Saffron Pigment ([1]; alanine 5.0 g/l, NAA 0.1 ppm): 7 | Relative Production of Stigma-Like Tissue Containing Saffron Pigment ([1]; alanine 5.0 g/l, NAA 0.1 ppm): 6 | Relative Color Density of Stigma-Like Tissue Containing Saffron Pigment ([1]; alanine 5.0 g/l, NAA 1.0 ppm): 7 | Relative Production of Stigma-Like Tissue Containing Saffron Pigment ([1]; alanine 5.0 g/l, NAA 1.0 ppm): 6 | Relative Color Density of Stigma-Like Tissue Containing Saffron Pigment (stigma of saffran; alanine 0.1 g/l, NAA 0.1 ppm): 6 | Relative Production of Stigma-Like Tissue Containing Saffron Pigment (stigma of saffran; alanine 0.1 g/l, NAA 0.1 ppm): 3 | Relative Color Density of Stigma-Like Tissue Containing Saffron Pigment (stigma of saffran; alanine 0.1 g/l, NAA 1.0 ppm): 8 | Relative Production of Stigma-Like Tissue Containing Saffron Pigment (stigma of saffran; alanine 0.1 g/l, NAA 1.0 ppm): 4 | Relative Color Density of Stigma-Like Tissue Containing Saffron Pigment (stigma of saffran; alanine 1.0 g/l, NAA 0.1 ppm): 8 | Relative Production of Stigma-Like Tissue Containing Saffron Pigment (stigma of saffran; alanine 1.0 g/l, NAA 0.1 ppm): 4 | Relative Color Density of Stigma-Like Tissue Containing Saffron Pigment (stigma of saffran; alanine 1.0 g/l, NAA 1.0 ppm): 8 | Relative Production of Stigma-Like Tissue Containing Saffron Pigment (stigma of saffran; alanine 1.0 g/l, NAA 1.0 ppm): 4 | Relative Color Density of Stigma-Like Tissue Containing Saffron Pigment (stigma of saffran; alanine 5.0 g/l, NAA 0.1 ppm): 7 | Relative Production of Stigma-Like Tissue Containing Saffron Pigment (stigma of saffran; alanine 5.0 g/l, NAA 0.1 ppm): 4 | Relative Color Density of Stigma-Like Tissue Containing Saffron Pigment (stigma of saffran; alanine 5.0 g/l, NAA 1.0 ppm): 7 | Relative Production of Stigma-Like Tissue Containing Saffron Pigment (stigma of saffran; alanine 5.0 g/l, NAA 1.0 ppm): 4 | effect of addition of alanine to the medium [2]: discharge of a red substance into the medium
